Test results as given in ChEMBL document CHEMBL1201862, “PubChem BioAssay data set” (2004).
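Exposure lasted 48 hours, with cells grown in 96-well plates and compounds tested at five concentrations. GI50 marks 50% less growth.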 Calls of active or inactive are those of the source. Rule as the data show it: active = GI50 up to about 1.1 µM and inactive = higher. Peptide text beside a SMILES is read from it. * marks the point of attachment. Boc = CC(C)(C)OC(=O)*

Key:
Assay in all cases: inhibition of tumour cell growth, NCI panel, 48 h
786-0 = tested on: 786-0
A498 = tested on: A498
A549 = tested on: A549
ACHN = tested on: ACHN
BT-549 = tested on: BT-549
CAKI-1 = tested on: CAKI-1
CCRF-CEM = tested on: CCRF-CEM
COLO 205 = tested on: COLO 205
DU-145 = tested on: DU-145
EKVX = tested on: EKVX
HCC 2998 = tested on: HCC 2998
HCT-116 = tested on: HCT-116
HCT-15 = tested on: HCT-15
HL-60 = tested on: HL-60
HOP-62 = tested on: HOP-62
HOP-92 = tested on: HOP-92
IGROV-1 = tested on: IGROV-1
K562 = tested on: K562
KM12 = tested on: KM12
LOX IMVI = tested on: LOX IMVI
M14 = tested on: M14
MDA-MB-231 = tested on: MDA-MB-231
MDA-MB-435 = tested on: MDA-MB-435
MDA-N = tested on: MDA-N
MOLT-4 = tested on: MOLT-4
Malme-3M = tested on: Malme-3M
NCI-H226 = tested on: NCI-H226
NCI-H23 = tested on: NCI-H23
NCI-H460 = tested on: NCI-H460
NCI-H522 = tested on: NCI-H522
NCI/ADR-RES = tested on: NCI/ADR-RES
OVCAR-3 = tested on: OVCAR-3
OVCAR-5 = tested on: OVCAR-5
OVCAR-8 = tested on: OVCAR-8
PC-3 = tested on: PC-3
RPMI-8226 = tested on: RPMI-8226
RXF 393 = tested on: RXF 393
SF-268 = tested on: SF-268
SF-295 = tested on: SF-295
SF-539 = tested on: SF-539
SK-MEL-28 = tested on: SK-MEL-28
SK-MEL-5 = tested on: SK-MEL-5
SK-OV-3 = tested on: SK-OV-3
SN12C = tested on: SN12C
SNB-19 = tested on: SNB-19
SNB-75 = tested on: SNB-75
SR = tested on: SR
SW-620 = tested on: SW-620
T47D = tested on: T47D
TK-10 = tested on: TK-10
U-251 = tested on: U-251
UACC-257 = tested on: UACC-257
UO-31 = tested on: UO-31
HT-29 = tested on: HT-29
Hs-578T = tested on: Hs-578T
MCF7 = tested on: MCF7
OVCAR-4 = tested on: OVCAR-4
SK-MEL-2 = tested on: SK-MEL-2
UACC-62 = tested on: UACC-62

## O=C(O)c1nc2ccccc2nc1Nc1ccc(Cl)c(Cl)c1
786-0
  GI50: 20.2 µM (inactive)
A498
  GI50: 13.1 µM (inactive)
A549
  GI50: 24.1 µM (inactive)
ACHN
  GI50: 29.5 µM (inactive)
BT-549
  GI50: 16.1 µM (inactive)
CAKI-1
  GI50: 33 µM (inactive)
CCRF-CEM
  GI50: 17.8 µM (inactive)
COLO 205
  GI50: 23.5 µM (inactive)
DU-145
  GI50: 36.4 µM (inactive)
EKVX
  GI50: 33.1 µM (inactive)
HCC 2998
  GI50: 18.2 µM (inactive)
HCT-116
  GI50: 22.5 µM (inactive)
HCT-15
  GI50: 13.1 µM
HL-60
  GI50: 25.8 µM (inactive)
HOP-62
  GI50: 16.1 µM (inactive)
HOP-92
  GI50: 16.1 µM (inactive)
IGROV-1
  GI50: 20.5 µM (inactive)
K562
  GI50: 21.7 µM (inactive)
KM12
  GI50: 10.8 µM (inactive)
LOX IMVI
  GI50: 28.8 µM (inactive)
M14
  GI50: 24.5 µM (inactive)
MDA-MB-231
  GI50: 31.3 µM (inactive)
MDA-MB-435
  GI50: 28.4 µM (inactive)
MDA-N
  GI50: 24.9 µM (inactive)
MOLT-4
  GI50: 15.8 µM (inactive)
Malme-3M
  GI50: 18.4 µM (inactive)
NCI-H226
  GI50: 43.4 µM (inactive)
NCI-H23
  GI50: 17.7 µM (inactive)
NCI-H460
  GI50: 13.6 µM (inactive)
NCI-H522
  GI50: 17 µM (inactive)
NCI/ADR-RES
  GI50: 27.9 µM (inactive)
OVCAR-3
  GI50: 11.5 µM (inactive)
OVCAR-5
  GI50: 39.6 µM (inactive)
OVCAR-8
  GI50: 41.1 µM (inactive)
PC-3
  GI50: 32.6 µM (inactive)
RPMI-8226
  GI50: 35.3 µM (inactive)
RXF 393
  GI50: 25.4 µM (inactive)
SF-268
  GI50: 17.9 µM (inactive)
SF-295
  GI50: 17.3 µM (inactive)
SF-539
  GI50: 19.9 µM (inactive)
SK-MEL-28
  GI50: 13 µM (inactive)
SK-MEL-5
  GI50: 15.7 µM (inactive)
SK-OV-3
  GI50: 28.3 µM (inactive)
SN12C
  GI50: 20.1 µM (inactive)
SNB-19
  GI50: 24.9 µM (inactive)
SNB-75
  GI50: 56.5 µM (inactive)
SR
  GI50: 47.9 µM (inactive)
SW-620
  GI50: 31.7 µM (inactive)
T47D
  GI50: 17.7 µM (inactive)
TK-10
  GI50: 42.9 µM (inactive)
U-251
  GI50: 22.1 µM (inactive)
UACC-257
  GI50: 31.8 µM (inactive)
UO-31
  GI50: 15.6 µM (inactive)

## COc1ccc2c(c1)C1=NCCN(CCO)c3ccc([N+](=O)[O-])c(c31)N2
786-0
  GI50: 0.22 µM (active)
A498
  GI50: 0.798 µM (active)
A549
  GI50: 0.427 µM (active)
ACHN
  GI50: 0.348 µM (active)
CAKI-1
  GI50: 0.366 µM (active)
CCRF-CEM
  GI50: 0.18 µM (active)
COLO 205
  GI50: 0.298 µM (active)
DU-145
  GI50: 1.02 µM (active)
EKVX
  GI50: 0.705 µM (active)
HCC 2998
  GI50: 0.574 µM (active)
HCT-116
  GI50: 0.232 µM (active)
HCT-15
  GI50: 0.75 µM
HL-60
  GI50: 0.34 µM (active)
HOP-62
  GI50: 0.462 µM (active)
HOP-92
  GI50: 0.395 µM (active)
HT-29
  GI50: 0.324 µM (active)
Hs-578T
  GI50: 0.693 µM (active)
IGROV-1
  GI50: 0.519 µM (active)
K562
  GI50: 0.222 µM (active)
KM12
  GI50: 0.505 µM (active)
LOX IMVI
  GI50: 0.127 µM (active)
M14
  GI50: 0.407 µM (active)
MCF7
  GI50: 0.42 µM (active)
MDA-MB-231
  GI50: 0.468 µM (active)
MDA-MB-435
  GI50: 0.493 µM (active)
MDA-N
  GI50: 0.431 µM (active)
MOLT-4
  GI50: 0.0755 µM (active)
Malme-3M
  GI50: 0.35 µM (active)
NCI-H226
  GI50: 0.331 µM (active)
NCI-H23
  GI50: 0.652 µM (active)
NCI-H460
  GI50: 0.274 µM (active)
NCI-H522
  GI50: 0.264 µM (active)
NCI/ADR-RES
  GI50: 1.23 µM (inactive)
OVCAR-3
  GI50: 0.785 µM (active)
OVCAR-4
  GI50: 0.54 µM (active)
OVCAR-5
  GI50: 0.728 µM (active)
OVCAR-8
  GI50: 0.201 µM (active)
PC-3
  GI50: 0.34 µM (active)
RPMI-8226
  GI50: 0.29 µM (active)
RXF 393
  GI50: 0.494 µM (active)
SF-268
  GI50: 0.752 µM (active)
SF-295
  GI50: 0.454 µM (active)
SF-539
  GI50: 0.415 µM (active)
SK-MEL-28
  GI50: 0.624 µM (active)
SK-MEL-2
  GI50: 0.587 µM (active)
SK-MEL-5
  GI50: 0.366 µM (active)
SK-OV-3
  GI50: 0.574 µM (active)
SN12C
  GI50: 0.429 µM (active)
SNB-19
  GI50: 0.59 µM (active)
SNB-75
  GI50: 0.578 µM (active)
SR
  GI50: 0.0368 µM (active)
SW-620
  GI50: 0.187 µM (active)
T47D
  GI50: 0.532 µM (active)
TK-10
  GI50: 0.63 µM (active)
U-251
  GI50: 0.506 µM (active)
UACC-257
  GI50: 0.581 µM (active)
UACC-62
  GI50: 0.422 µM (active)
UO-31
  GI50: 0.265 µM (active)

## COC(=O)C(Cc1c[nH]c2ccccc12)NC(=O)C(Cc1c[nH]c2ccccc12)NC(=O)C(Cc1c[nH]c2ccccc12)NC(=O)C(Cc1c[nH]c2ccccc12)NC(=O)C(Cc1c[nH]c2ccccc12)NC(=O)OC(C)(C)C (stereo not drawn) (Boc-WWWWW-OMe; configuration not given here)
786-0
  GI50: 60 µM (inactive)
A549
  GI50: 67 µM (inactive)
ACHN
  GI50: 74 µM (inactive)
BT-549
  GI50: 91.8 µM (inactive)
CAKI-1
  GI50: > 100 µM (inactive)
CCRF-CEM
  GI50: 74 µM (inactive)
DU-145
  GI50: 33.4 µM (inactive)
HCC 2998
  GI50: > 100 µM (inactive)
HCT-116
  GI50: 29.7 µM (inactive)
HCT-15
  GI50: > 100 µM
HL-60
  GI50: 33 µM (inactive)
HOP-62
  GI50: > 100 µM (inactive)
HT-29
  GI50: > 100 µM (inactive)
IGROV-1
  GI50: 30 µM (inactive)
K562
  GI50: 36.8 µM (inactive)
LOX IMVI
  GI50: 67.6 µM (inactive)
M14
  GI50: 33.3 µM (inactive)
MCF7
  GI50: 84.1 µM (inactive)
MDA-MB-231
  GI50: > 100 µM (inactive)
MDA-MB-435
  GI50: > 100 µM (inactive)
MDA-N
  GI50: 92 µM (inactive)
MOLT-4
  GI50: 19.6 µM (inactive)
Malme-3M
  GI50: 94.2 µM (inactive)
NCI-H226
  GI50: 42 µM (inactive)
NCI-H23
  GI50: 58.1 µM (inactive)
NCI-H460
  GI50: 84.1 µM (inactive)
NCI-H522
  GI50: 46 µM (inactive)
OVCAR-3
  GI50: > 100 µM (inactive)
OVCAR-4
  GI50: > 100 µM (inactive)
OVCAR-5
  GI50: > 100 µM (inactive)
OVCAR-8
  GI50: > 100 µM (inactive)
PC-3
  GI50: > 100 µM (inactive)
RPMI-8226
  GI50: 26.2 µM (inactive)
SF-268
  GI50: 71 µM (inactive)
SK-MEL-28
  GI50: 55.7 µM (inactive)
SK-MEL-2
  GI50: 45.2 µM (inactive)
SK-MEL-5
  GI50: 17.5 µM (inactive)
SN12C
  GI50: > 100 µM (inactive)
SNB-19
  GI50: 39 µM (inactive)
SNB-75
  GI50: 36.5 µM (inactive)
SR
  GI50: 32.4 µM (inactive)
SW-620
  GI50: > 100 µM (inactive)
T47D
  GI50: 10.7 µM (inactive)
TK-10
  GI50: > 100 µM (inactive)
U-251
  GI50: 65.9 µM (inactive)
UACC-257
  GI50: > 100 µM (inactive)
UACC-62
  GI50: 26.5 µM (inactive)
UO-31
  GI50: 36.6 µM (inactive)

## CC(C)CC(=O)O[C@H]1C(=O)O[C@@H]2C[C@H]3[C@H](C)C(=O)C(O[C@@H]4O[C@H](CO)[C@@H](O)[C@H](O)[C@H]4O)=C[C@]3(C)[C@H]3[C@@H](O)[C@H](O)[C@]4(C(=O)O)OC[C@]32[C@@H]14 [BRUCEOSIDE E]
BT-549
  GI50: 95.1 µM (inactive)
KM12
  GI50: 70.1 µM (inactive)
M14
  GI50: 91.2 µM (inactive)
MDA-MB-435
  GI50: 61.2 µM (inactive)
MDA-N
  GI50: 82 µM (inactive)
NCI-H23
  GI50: 52.4 µM (inactive)
OVCAR-5
  GI50: 94 µM (inactive)
PC-3
  GI50: 80.9 µM (inactive)
SK-OV-3
  GI50: 52.1 µM (inactive)
SNB-75
  GI50: 78 µM (inactive)
T47D
  GI50: 94.6 µM (inactive)
TK-10
  GI50: 59.6 µM (inactive)
UACC-62
  GI50: 60 µM (inactive)
UO-31
  GI50: 71.4 µM (inactive)
